Structures can show the parent of a compound that is named as a salt.
Assays:
[1] = Hygroscopicity of acid addition salts; format: physicochemical
[2] = Stomach juice secretion inhibition, method of Shay et al; settings: rat, in vivo; dose reducing volume of stomach juice secreted by 50% and total acidity by 50%; measure of dryness of the mouth; read-out: Stomach juice secretion inhibiting ED50 in rats
Method: The effect on the stomach juice secretion was determined on rats by the standard test method of Shay et al, Gastroenterology 5, 43 (1943), and the ED50 was calculated for each test compound, that is, the dose which reduces the volume of stomach juice secreted over a given amount of time by 50%, and at the same time produces a 50% reduction in the total acidity of the secreted stomach juice volume.

pKa-value = format: physicochemical
blood pressure = test: Hypotensive activity (blood pressure reduction) in rabbits under urethane anesthesia, i.v.; format: in vivo; settings: for ED (20 mm Hg): Oryctolagus cuniculus, iv, urthane anesthesia, dose producing lasting reduction of 20 mm Hg of blood pressure, arteria carotis, read-out: Hypotensive ED20 in rabbits
Method: The hypotensive activity of the test compounds was determined on a statistically significant number of rabbits under urthane anesthesia. The blood pressure of the test animals was continuously measured in the arteria carotis by means of a mercury manometer before and after the i.v. administration of the test compound at varying dosage levels. The ED20 was determined, that is, the dose which produced a lasting reduction of 20 mm Hg of the blood pressure.

Row | Compound | hygroscopicity [1] | other results
1 | Fc1cccc(Br)c1N=C1NCCN1 [Oxalate] | hygroscopic | 
2 | Fc1cccc(Br)c1N=C1NCCN1 [Benzoate] | slightly hygroscopic | 
3 | Fc1cccc(Br)c1NC1=NCCN1 [2-bromo-6-fluoro-N-(2-imidazolidinylidene)-benzamine monohydrochloride] |  | ED50 [2]: 0.1 mg/kg; pKa (pKa-value): 8.2; ED (20 mm Hg) (blood pressure): 0.01 mg/kg
4 | Clc1cccc(Cl)c1NC1=NCCN1 [clonidine, 2-(2,6-dichloroanilino)-2-imidazoline] |  | antihypertensive efficacy relative to the invention compound (blood pressure; comparison with 2-bromo-6-fluoro-N-(2-imidazolidinylidene)-benzamine): equal antihypertensive efficacy
5 | Fc1cccc(Br)c1N=C1NCCN1 [Tosylate] | hygroscopic | 
6 | Fc1cccc(Br)c1N=C1NCCN1 [Citrate] | hygroscopic | 
7 | Fc1cccc(Br)c1N=C1NCCN1 [Hydrobromide] | hygroscopic | 
8 | Fc1cccc(Br)c1N=C1NCCN1 [Tartrate] | hygroscopic | 
9 | Fc1cccc(Br)c1N=C1NCCN1 [Nitrate] | slightly hygroscopic | 
10 | Fc1cccc(Br)c1N=C1NCCN1 [Methanesulfonate] | hygroscopic | 
11 | Clc1cccc(Cl)c1NC1=NCCN1 [Clonidine . HCl, 2-(2,6-dichloroanilino)-2-imidazoline, reference compound] |  | ED50 [2]: 0.04 mg/kg; ED (20 mm Hg) (blood pressure): 0.01 mg/kg

— US4166859A, “2-Bromo-6-fluoro-N-(2-imidazolidinylidene)-benzamine and salts thereof and the use to treat hypertension” (Boehringer Ingelheim GmbH, priority 1976, dated 1979)
